Key:
ataxia and imbalance = settings: case series and small controlled trials; cited from earlier work
[1] = test system: cerebellar symptoms of SCA14; test: Case report: person with SCA14 taking varenicline (Example 2, second patient); type: in vivo, human; settings: for effect of prior medications on cerebellar symptoms: SCA14 patient, before varenicline; for total SARA score: blinded rating
Description: The second patient was a person who presented to an academic movement disorders center for neurologic evaluation. […] They had never smoked or used drugs or alcohol and had no allergies. Their medical history was significant for hypertension, which was treated with 325 mg of valsartan (Diovan). Prior medications to treat their cerebellar symptoms included levodopa/carbidopa (Sinemet), lorazepam (Ativan), clonazapem (Klonopin), and zolpidem (Ambien), to no avail.
On evaluation, the patient's vital signs and physical examination were normal. Their neurologic examination included a Mini-Mental Status Examination of 30/30, mild dysarthria, mild postural and intention tremor, and moderate dysmetria in all extremities. Their gait consisted of moderate to severe ataxia, and they required the constant use of a walker or the support of a cane to ambulate. The patient could tandem walk only with support. Increased tone and hyperreflexia were present in their lower extremities, with occasional myoclonus of their right leg.
The patient was started on 0.5 mg of varenicline (Chantix®) once a day, titrating to 1 mg twice daily after 1 week with the understanding that this was being used as an off-label medication. […] The patient returned to the academic movement disorders center 3 weeks after starting varenicline. […] The patient was scored by a blinded movement disorders expert using the SARA. The patient's total SARA score before taking 1 mg of varenicline twice daily was 22, whereas the score 3 weeks after starting varenicline was 8. The patient remained on varenicline for 8 weeks with continued efficacy but discontinued it owing to financial considerations.

[2] = in vivo; cited from earlier work
[3] = target: α4β2 nicotinic acetylcholine receptors (Homo sapiens, UniProt P17787+P43681); settings: cited from earlier work
α4β2 nicotinic acetylcholine receptors, sequence (P43681 29-627 limits assumed): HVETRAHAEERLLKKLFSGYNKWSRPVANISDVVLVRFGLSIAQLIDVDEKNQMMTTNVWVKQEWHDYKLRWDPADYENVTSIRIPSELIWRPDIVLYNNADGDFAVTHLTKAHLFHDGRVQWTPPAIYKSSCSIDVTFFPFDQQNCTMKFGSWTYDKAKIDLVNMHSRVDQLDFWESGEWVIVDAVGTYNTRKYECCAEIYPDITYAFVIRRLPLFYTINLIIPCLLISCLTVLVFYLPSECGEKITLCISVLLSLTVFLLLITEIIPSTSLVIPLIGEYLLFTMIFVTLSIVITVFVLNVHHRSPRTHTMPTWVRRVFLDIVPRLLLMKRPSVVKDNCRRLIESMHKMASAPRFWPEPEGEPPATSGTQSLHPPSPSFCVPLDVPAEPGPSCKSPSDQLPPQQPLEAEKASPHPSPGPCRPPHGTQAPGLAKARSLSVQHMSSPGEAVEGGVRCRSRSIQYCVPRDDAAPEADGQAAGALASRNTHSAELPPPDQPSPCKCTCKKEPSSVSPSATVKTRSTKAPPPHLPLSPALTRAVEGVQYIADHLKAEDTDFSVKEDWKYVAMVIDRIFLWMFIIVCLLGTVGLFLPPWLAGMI
α4β2 nicotinic acetylcholine receptors, sequence (P17787 26-502): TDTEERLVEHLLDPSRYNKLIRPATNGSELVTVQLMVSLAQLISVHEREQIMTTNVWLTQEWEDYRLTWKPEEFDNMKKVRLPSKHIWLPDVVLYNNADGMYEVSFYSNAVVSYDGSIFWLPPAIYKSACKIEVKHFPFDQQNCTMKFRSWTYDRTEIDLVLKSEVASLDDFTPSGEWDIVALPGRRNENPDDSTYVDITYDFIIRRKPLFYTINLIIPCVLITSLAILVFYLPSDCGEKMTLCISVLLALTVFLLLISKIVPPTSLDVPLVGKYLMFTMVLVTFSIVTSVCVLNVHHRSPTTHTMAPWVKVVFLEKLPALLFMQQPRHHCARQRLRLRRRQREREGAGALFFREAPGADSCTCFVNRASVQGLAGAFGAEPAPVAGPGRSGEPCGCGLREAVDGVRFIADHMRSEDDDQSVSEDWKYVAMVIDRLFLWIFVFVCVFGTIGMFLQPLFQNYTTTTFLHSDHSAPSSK

[4] = test system: ataxia and imbalance in Fragile X-associated Tremor Ataxia syndrome (FXTAS); test: Case report: person with FXTAS taking varenicline (Example 1); type: in vivo, human; settings: for SARA score, functional staging for ataxia / SARA score, gait / SARA score, tandem walking: blinded video rating
Description: The patient was a person with a nine-year history of postural and intention tremor of their arms and a four-year history of gait ataxia. Their symptoms became disabling in the past year with frequent falls despite the intermittent use of a walker. […] A timeline of the patient's clinical course is depicted in FIG. 1. […] One week after taking varenicline, they noted that their walking improved and they no longer needed assistance from a walker to ambulate. […] The patient was evaluated by the University of South Florida (USF) movement disorders center seven weeks after starting varenicline. Vital signs and physical examination were normal. Their neurological examination included a Mini Mental State Exam (MMSE) of 26/30, mild dysarthria, mild voice tremor, severe postural and intention tremor of their arms, mild rigidity, and moderate dysmetria in all extremities. They were able to get out of a chair without assistance, and continued to walk six meters five times (30 meters total) without rest or the assistance of a walker. They were able to tandem walk for two to three steps. The rest of their neurological exam, including cranial nerves, reflexes, motor and sensory examination, was within normal limits. The patient received a score of 5 (out of a maximum possible score=63) on a Beck's Depression Scale (BDI) (2). […] Chest X-ray was clear, with no evidence of neoplasia. The patient stopped varenicline seven weeks after starting it. Within 10 days, they reported a slight worsening of the residual ataxia and imbalance. Within three weeks, they again needed a walker for ambulation and began to fall daily. The patient returned to clinic off varenicline. […] They once again needed assistance to walk and was unable to tandem walk even with assistance. The rest of the neurological examination remained unchanged, including the postural and intention tremor. […] At week 11, the patient re-started varenicline one mg twice daily, and again noted improvement in ataxia within one week. Due to vivid dreams, the varenicline dose was decreased to one mg daily at week 12. The patient has taken varenicline for 22 weeks, with a sustained ataxia improvement. A videotape of the patient was scored by a blinded movement disorders expert using the SARA (Scale for Assessment and Rating of Ataxia) (3). The SARA scores on varenicline one mg b.i.d. were “two” for functional staging for ataxia (ataxic symptoms were present and were recognized by patient, but were still mild), “one” for tandem walking (the patient was able to tandem walk in less than perfect manner or the patient could tandem walk greater than four sequential steps but less than eight steps) and “zero” for gait (normal). The SARA scores after the patient had discontinued varenicline for three weeks included a “three” for functional staging for ataxia (ataxic symptoms considered overt and significant), “three” for tandem walking (the patient was considered too poorly coordinated to attempt the task), and “two” for gait (the patient walked with definite ataxia; may have needed intermittent support for walking or the examiner needed to walk with patient for safety sake).

[5] = target: α7 nicotinic acetylcholine receptors (Homo sapiens, UniProt P36544); settings: cited from earlier work
α7 nicotinic acetylcholine receptors, sequence (P36544 23-502): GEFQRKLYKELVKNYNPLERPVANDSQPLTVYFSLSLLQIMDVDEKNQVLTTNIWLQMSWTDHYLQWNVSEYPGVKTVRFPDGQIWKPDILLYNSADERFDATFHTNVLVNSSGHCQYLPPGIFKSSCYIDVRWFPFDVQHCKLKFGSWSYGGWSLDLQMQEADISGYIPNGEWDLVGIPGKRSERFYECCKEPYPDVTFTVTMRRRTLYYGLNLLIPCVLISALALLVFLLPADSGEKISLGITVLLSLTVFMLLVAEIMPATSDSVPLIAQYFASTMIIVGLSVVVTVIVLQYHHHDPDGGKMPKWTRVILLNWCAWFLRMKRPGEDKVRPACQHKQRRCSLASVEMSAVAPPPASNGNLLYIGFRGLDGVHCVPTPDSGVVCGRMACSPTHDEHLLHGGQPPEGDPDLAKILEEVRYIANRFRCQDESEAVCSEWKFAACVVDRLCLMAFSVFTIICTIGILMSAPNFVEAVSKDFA

[6] = test system: cerebellar symptoms of SCA type 3; test: Case report: person with SCA type 3 taking varenicline (Example 2, first patient); type: in vivo, human; settings: for total SARA score: blinded video rating
Description: The first patient was a person with a 16-year history of imbalance, gait dysfunction, and dysarthria who presented to an academic movement disorders center for management of their symptoms. […] Their medical history included one myocardial infarction 2 years ago, coronary artery disease, hypertension, and hyperlipidemia. […] On examination, the patient's vital signs and physical examination were normal. Their neurologic examination included a Mini-Mental Status Exam (MMSE) of 30/30, mild dysarthria, mild to moderate postural and intention tremor, mild dystonia in their arms, mild akinesia, and moderate dysmetria in all extremities. Fast alternating hand movements were irregular and marked by interruptions, and their heel to shin slide was severely abnormal bilaterally. Their gait was ataxic and […], and they required the constant use of a walker or the support of a cane to ambulate. Their cranial nerves and motor examination were normal, although there was mild decrease in […] sensory examination to light and deep touch in a stocking-glove distribution. There was increased tone and hyperreflexia in their lower extremities. […] After the evaluation, the patient started varenicline 0.5 mg twice daily for smoking cessation. The dose of varenicline was increased to 1 mg twice daily after one week. […] The patient returned to the academic movement disorders center one month after starting varenicline for routine follow-up. […] A videotape of the patient was scored by a blinded movement disorders expert using the SARA (Scale for Assessment and Rating of Ataxia) (1). The total SARA score prior to the patient taking varenicline 1 mg twice daily was 29, while the score one month after starting varenicline was 13.

[7] = test system: cerebellar symptoms of spinocerebellar ataxia (SCA) and Fragile-X-Associated Tremor Ataxia Syndrome (FXTAS); test: Open-label varenicline in ataxic patients; SARA and CGI, blinded video assessment; type: in vivo, human
Description: DESIGN/METHODS: Seven patients from an academic movement disorders center with spinocerebellar ataxia (n=6) and […]=1), were treated with open-label varenicline 1 mg twice daily. Two patients had genetically confirmed SCA 3, 1 patient had genetically confirmed SCA 6, 3 patients had sporadic cerebellar ataxia with no family history, and 1 patient had genetically-confirmed FXTAS. Patients were treated for 4 weeks with varenicline, which was discontinued on day 30. They were assessed at baseline and after 4 weeks using the Scale for the Assessment and Rating of Ataxia (SARA) (Schmitz-Hubsch et al, 2006) and the Clinical Global Impression (CGI) scale. Ataxia experts blindly assessed videotapes of the patients. […] In the remaining 5 patients, there was a mean improvement of 2.4 points in gait scores and of 5 points for the total SARA scores with varenicline use.

[8] = 3 weeks after starting varenicline
[9] = varenicline discontinued for three weeks
[10] = varenicline stopped after seven weeks
[11] = one month after starting varenicline
[12] = twenty-one days after first taking varenicline
[13] = of 5 remaining patients, 1 mg twice daily, 4 weeks

O=C1CC2(CCCC2)CC(=O)N1CCCCN1CCN(c2ncccn2)CC1 [buspirone]
efficacy in ataxia and imbalance (ataxia and imbalance): either conflicting results or limited efficacy

O=C1CN=C(c2ccccc2Cl)c2cc([N+](=O)[O-])ccc2N1 [clonazapem]
effect of prior medications on cerebellar symptoms [1]: to no avail

CNCCC(Oc1ccc(C(F)(F)F)cc1)c1ccccc1 (stereo not drawn) [fluoxetine]
efficacy in ataxia and imbalance (ataxia and imbalance): either conflicting results or limited efficacy

Nc1nnc(-c2cccc(Cl)c2Cl)c(N)n1 [lamotrigine]
efficacy in ataxia and imbalance (ataxia and imbalance): either conflicting results or limited efficacy

O=C1Nc2ccc(Cl)cc2C(c2ccccc2Cl)=NC1O (stereo not drawn) [lorazepam]
effect of prior medications on cerebellar symptoms [1]: to no avail

c1cnc2cc3c(cc2n1)[C@@H]1CNC[C@H]3C1 [varenicline, 7,8,9,10-tetrahydro-6,10-methano-6H-pyrazino (2,3-h)(3) benzazepine]
duration of nausea after taking the medication ([1]; 0.5 mg once a day, titrating to 1 mg twice daily after 1 week): 7 days | speech, dysmetria, finger-to-nose and heel-to-shin maneuvers [1, 8]: markedly improved | total SARA score [1, 8]: 8 | gait dysfunction ([1]; 3 weeks after starting varenicline, could walk without assistance): improved markedly | neurologic examination after discontinuation ([1]; 4 weeks after discontinuing varenicline): returned to prevarenicline status | time to reported marked improvements in walking, coordination, speech and balance ([1]; after starting varenicline): 8 days | total SARA score ([1]; before taking 1 mg of varenicline twice daily): 22 | duration on varenicline with continued efficacy ([1]; discontinued owing to financial considerations): 8 weeks | adverse effects [2]: nausea, sleep disturbance, constipation, flatulence, and vomiting | potential risks associated with use [2]: suicidal behavior, depressed mood, and agitation | type of activity at α4β2 nicotinic acetylcholine receptors [3]: highly selective partial agonist | ataxia and imbalance after starting varenicline ([4]; FXTAS patient): greatly improved | duration of sustained response after open-label resumption ([4]; FXTAS patient): five | BDI score off varenicline ([4]; after discontinuation): had not changed | neurological examination off varenicline ([4]; after discontinuation): returned to the pre-varenicline state | duration of varenicline use with sustained ataxia improvement ([4]; dose decreased to one mg daily at week 12): 22 weeks | SARA score, functional staging for ataxia ([4]; on varenicline one mg b.i.d.): two | SARA score, gait ([4]; on varenicline one mg b.i.d.): zero | SARA score, tandem walking ([4]; on varenicline one mg b.i.d.): one | onset of vivid dreaming after starting ([4]; one mg twice daily): two | side effect ([4]; one mg twice daily): vivid dreaming | smoking cessation ([4]; one mg twice daily): helped them quit smoking in a few days | time until walking improved and walker no longer needed ([4]; one mg twice daily): One | balance ([4]; one mg twice daily, one week): marked improvement | Beck's Depression Scale (BDI) score ([4]; seven weeks after starting varenicline, maximum possible score 63): 5 | distance walked without rest or assistance of a walker ([4]; seven weeks after starting varenicline, six meters five times): 30 meters | SARA score, functional staging for ataxia [4, 9]: three | SARA score, gait [4, 9]: two | SARA score, tandem walking [4, 9]: three | time to slight worsening of residual ataxia and imbalance after stopping [4, 10]: ≤ 10 days | time until walker again needed and daily falls after stopping [4, 10]: three | type of activity at α7 nicotinic acetylcholine receptors [5]: full agonist | time to reported improvement in depth perception and easier, more stable walking ([6]; 0.5 mg twice daily, 1 mg twice daily after one week): Ten | gait dysfunction and akinesia [6, 11]: improved markedly | limb dysmetria, fast alternating movements, finger to nose and heel-shin slide [6, 11]: markedly improved | total SARA score [6, 11]: 13 | total SARA score ([6]; prior to taking varenicline 1 mg twice daily): 29 | balance [6, 12]: markedly improved | distance walked using only a cane rather than a walker [6, 12]: 3 blocks | smoking cessation ([6]; while taking varenicline): did not stop smoking cigarettes | mean improvement in total SARA scores ([7]; 5 remaining patients, varenicline 1 mg twice daily, 4 weeks vs baseline): 5 points | mean improvement in gait scores ([7]; 5 remaining patients, varenicline 1 mg twice daily, 4 weeks vs baseline, SARA): 2.4 points | effect on cerebellar symptoms (conclusion) ([7]; blinded video analysis of ataxic patients): effectively treat cerebellar symptoms | patients with marked improvement in gait as measured by the CGI [7, 13]: Three | patients with moderate improvement in gait as measured by the CGI [7, 13]: 2 patients | reason for discontinuation of varenicline ([7]; two of seven patients (one SCA 6, one sporadic ataxia)): flu-like symptoms and increased tremor | reduction of intake of cigarettes ([7]; two smokers with marked improvement in gait, while taking varenicline): 50%

Cc1ccc(-c2nc3ccc(C)cn3c2CC(=O)N(C)C)cc1 [zolpidem]
effect of prior medications on cerebellar symptoms [1]: to no avail | efficacy in ataxia and imbalance (ataxia and imbalance): either conflicting results or limited efficacy

Reference: patent publication US9463190B2, “Methods of treating disease-induced ataxia and non-ataxic imbalance” (UNIVERSITY OF SOUTH FLORIDA, priority 2008, dated 2016)
